Data as given in the supplement of paper PMC11208160.

Assay: recombinant UMI read abundance after kanamycin selection (control-corrected) (log10(CPM+1)); higher = more efficient recombination; extreme values may be limits of the assay; sequences stand for … in AGTGCAGAGAAAATCGGCCAGTTTTCTCTGCCTGCAGTCCGCATGCCGTGGGACCCCTTGGGTTCTAACCTGTTGCCTAGATTTATGCAGCGGACTGCCTTTCTCCCAAAGTGATAAACCGG…AGGTTGGTTTCACT; site = the 11-nt donor
Method in brief: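 Values are reported as log10(CPM+1), obtained by converting sequencing counts to CPM, averaging replicates and scaling by control-derived factors. The counts came from recombinant UMIs amplified by PCR across the donor–target junction. These UMIs came from a pooled Escherichia coli screen of donor and donor-binding-loop pairs for the IS621 bridge recombinase, plated with IPTG (0.07 mM) plus kanamycin or left unselected, in two replicates each.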
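Further: IS621 bridge recombinase in Escherichia coli cells against a fixed T5 target plasmid.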

Sequence | recombinant UMI read abundance (log10)
TACCTGACATGGACCGGTTTTCCCGGTAATCCGTATTTGCT (site TACTTGACTAG) | 0
TACCTTCCATGGACCGGTTTTCCCGGTAATCCGTATTTGGC (site TACCTTCCTGC) | 0
TACGATCCATGGACCGGTTTTCCCGGTAATCCGTATTTGCT (site TACGATCCTAG) | 1.96
TACGGAGCATGGACCGGTTTTCCCGGTAATCCGTATTTGCC (site AGTCTTACTAA) | 0
TACGGCCCATGGACCGGTTTTCCCGGTAATCCGTATTTGTT (site AACGGCCCTAA) | 0.0182
TACGGCCCATGGACCGGTTTTCCCGGTAATCCGTATTTGTT (site CACGGCCCTAA) | 0.00844
TACGGCCCATGGACCGGTTTTCCCGGTAATCCGTATTTGTT (site GACGGCCCTAA) | 0.00736
TACGGCCCATGGACCGGTTTTCCCGGTAATCCGTATTTGTT (site TACGGCCCTAA) | 0.00191
TACGGCGCATGGACCGGTTTTCCCGGTAATCCGTATTTGCC (site TACGGCGCTGG) | 2.01
TACGTGACATGGACCGGTTTTCCCGGTAATCCGTATTTGAC (site TACGTGACTGT) | 1.74
TACTCCTCATGGACCGGTTTTCCCGGTAATCCGTATTTGGG (site TACTCCTCTCC) | 0.0269
TACTCTCCATGGACCGGTTTTCCCGGTAATCCGTATTTGTG (site TACTCTCCTCA) | 0.011
TACTGCACATGGACCGGTTTTCCCGGTAATCCGTATTTGGG (site TACTGCACTCC) | 0.0129
TACTTAACATGGACCGGTTTTCCCGGTAATCCGTATTTGCT (site TACTTAACTAG) | 0.345
TACTTAACATGGACCGGTTTTCCCGGTAATCCGTATTTGCT (site TACTTCACTAG) | 0.00655
TACTTAACATGGACCGGTTTTCCCGGTAATCCGTATTTGCT (site TACTTGACTAG) | 0.00699
TACTTAACATGGACCGGTTTTCCCGGTAATCCGTATTTGCT (site TACTTTACTAG) | 0
TACTTCACATGGACCGGTTTTCCCGGTAATCCGTATTTGCT (site TACTTAACTAG) | 0.0118
TACTTCACATGGACCGGTTTTCCCGGTAATCCGTATTTGCT (site TACTTCACTAG) | 1.9
TACTTCACATGGACCGGTTTTCCCGGTAATCCGTATTTGCT (site TACTTGACTAG) | 0.0117
TACTTCACATGGACCGGTTTTCCCGGTAATCCGTATTTGCT (site TACTTTACTAG) | 0
TACTTGACATGGACCGGTTTTCCCGGTAATCCGTATTTGGT (site TACTTGACTAA) | 0.109
TACTTGACATGGACCGGTTTTCCCGGTAATCCGTATTTGGT (site TACTTGACTAC) | 0.209
TACTTGACATGGACCGGTTTTCCCGGTAATCCGTATTTGGT (site TACTTGACTAG) | 0
TACTTGACATGGACCGGTTTTCCCGGTAATCCGTATTTGGT (site TACTTGACTAT) | 0.179
TAGAAAACATGGACCGGTTTTCCCGGTAATCCGTATTTGGA (site TAGAAAACTTC) | 0.76

Sequence | recombinant UMI read abundance (log10)
TAGAACACATGGACCGGTTTTCCCGGTAATCCGTATTTGCA (site TAGAAAACTTG) | 0
TAGAACACATGGACCGGTTTTCCCGGTAATCCGTATTTGCA (site TAGAACACTTG) | 2.41
TAGAACACATGGACCGGTTTTCCCGGTAATCCGTATTTGCA (site TAGAAGACTTG) | 0.271
TAGAACACATGGACCGGTTTTCCCGGTAATCCGTATTTGCA (site TAGAATACTTG) | 1.87
TAGAATACATGGACCGGTTTTCCCGGTAATCCGTATTTGAA (site TAGAATACTTA) | 0.0126
TAGAATACATGGACCGGTTTTCCCGGTAATCCGTATTTGAA (site TAGAATACTTC) | 0.0116
TAGAATACATGGACCGGTTTTCCCGGTAATCCGTATTTGAA (site TAGAATACTTG) | 0
TAGAATACATGGACCGGTTTTCCCGGTAATCCGTATTTGAA (site TAGAATACTTT) | 0.686
TAGAATACATGGACCGGTTTTCCCGGTAATCCGTATTTGCC (site TAGAATACTAG) | 0
TAGAATACATGGACCGGTTTTCCCGGTAATCCGTATTTGCC (site TAGAATACTCG) | 0
TAGAATACATGGACCGGTTTTCCCGGTAATCCGTATTTGCC (site TAGAATACTGG) | 0
TAGAATACATGGACCGGTTTTCCCGGTAATCCGTATTTGCC (site TAGAATACTTG) | 0
TAGAATACATGGACCGGTTTTCCCGGTAATCCGTATTTGCT (site TAGAATACTAG) | 1.3
TAGAATACATGGACCGGTTTTCCCGGTAATCCGTATTTGCT (site TAGAATACTCG) | 0.00353
TAGAATACATGGACCGGTTTTCCCGGTAATCCGTATTTGCT (site TAGAATACTGG) | 0
TAGAATACATGGACCGGTTTTCCCGGTAATCCGTATTTGCT (site TAGAATACTTG) | 0.00456
TAGAATCCATGGACCGGTTTTCCCGGTAATCCGTATTTGCA (site TAGAATACTTG) | 0
TAGAATCCATGGACCGGTTTTCCCGGTAATCCGTATTTGCA (site TAGAATCCTTG) | 1.16
TAGAATCCATGGACCGGTTTTCCCGGTAATCCGTATTTGCA (site TAGAATGCTTG) | 0
TAGAATCCATGGACCGGTTTTCCCGGTAATCCGTATTTGCA (site TAGAATTCTTG) | 0
TAGAATGCATGGACCGGTTTTCCCGGTAATCCGTATTTGCA (site TAGAATACTTG) | 0.258
TAGAATGCATGGACCGGTTTTCCCGGTAATCCGTATTTGCA (site TAGAATCCTTG) | 0.762
TAGAATGCATGGACCGGTTTTCCCGGTAATCCGTATTTGCA (site TAGAATGCTTG) | 2.71
TAGAATGCATGGACCGGTTTTCCCGGTAATCCGTATTTGCA (site TAGAATTCTTG) | 0.905
TAGAATTCATGGACCGGTTTTCCCGGTAATCCGTATTTGCA (site TAGAATACTTG) | 0.907
TAGAATTCATGGACCGGTTTTCCCGGTAATCCGTATTTGCA (site TAGAATCCTTG) | 0
